Results as given in ChEMBL document CHEMBL1156458, “chi-Conotoxin and tricyclic antidepressant interactions at the norepinephrine transporter define a new transporter model” (J Biol Chem, 2007).

Molecular target: Sodium-dependent dopamine transporter (Homo sapiens, UniProt Q01959, F472L)
Experiment: Inhibition of [3H]dopamine uptake at human DAT F472L mutant expressed in african green monkey COS1 cells after 48 hrs
Format: cell-based, COS-1

Chain of Sodium-dependent dopamine transporter (Q01959 whole entry F472L): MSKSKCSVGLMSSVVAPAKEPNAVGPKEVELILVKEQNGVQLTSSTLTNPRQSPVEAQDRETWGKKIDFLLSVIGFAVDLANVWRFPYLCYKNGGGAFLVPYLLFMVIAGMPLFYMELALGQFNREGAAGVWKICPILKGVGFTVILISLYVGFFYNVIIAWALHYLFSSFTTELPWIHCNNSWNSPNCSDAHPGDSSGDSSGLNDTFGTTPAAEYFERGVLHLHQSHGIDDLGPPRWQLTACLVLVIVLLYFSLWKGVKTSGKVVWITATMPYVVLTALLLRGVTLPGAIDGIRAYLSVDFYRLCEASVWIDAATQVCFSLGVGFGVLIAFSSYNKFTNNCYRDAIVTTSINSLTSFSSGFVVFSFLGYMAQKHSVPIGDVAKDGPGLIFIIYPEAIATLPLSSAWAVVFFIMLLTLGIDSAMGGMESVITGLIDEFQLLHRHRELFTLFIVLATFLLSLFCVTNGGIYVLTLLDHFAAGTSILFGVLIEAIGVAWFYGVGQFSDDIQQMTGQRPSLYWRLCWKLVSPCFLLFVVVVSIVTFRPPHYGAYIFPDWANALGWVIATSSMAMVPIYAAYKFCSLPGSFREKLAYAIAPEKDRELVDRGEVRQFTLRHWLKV

CC(C)C[C@@H]1NC(=O)[C@H](CCCCN)NC(=O)[C@H](Cc2ccc(O)cc2)NC(=O)CNC(=O)[C@@H]2CSSC[C@H](NC1=O)C(=O)N[C@@H](Cc1cnc[nH]1)C(=O)N1C[C@H](O)C[C@H]1C(=O)N[C@H](C(=O)O)CSSC[C@H](NC(=O)[C@@H](NC(=O)CNC(=O)[C@@H](N)CC(N)=O)C(C)C)C(=O)N2
IC50: 200 µM
